Results: patent publication US9708293B2, “N-(pyridin-2-yl)pyrimidin-4-amine derivatives containing a sulfone group” (BAYER PHARMA AKTIENGESELLSCHAFT, priority 2012, dated 2017)

Assays:
[1] = Caco-2 permeation assay; format: in vitro ADME; details: human, pH 7.2, Caco-2, test compound 2 μM
Procedure: 4. Caco-2 Permeation Assay:
Caco-2 cells (purchased from DSMZ Braunschweig, Germany) were seeded at a density of 4.5×10^4 cells per well on 24 well insert plates, 0.4 μm pore size, and grown for 15 days in DMEM medium supplemented with 10% fetal bovine serum, 1% GlutaMAX (100x, GIBCO), 100 U/mL penicillin, 100 μg/mL streptomycin (GIBCO) and 1% non essential amino acids (100×). Cells were maintained at 37° C. in a humified 5% CO2 atmosphere. Medium was changed every 2-3 day. Before running the permeation assay, the culture medium was replaced by a FCS-free hepes-carbonate transport buffer (pH 7.2). For assessment of monolayer integrity the transepithelial electrical resistance (TEER) was measured. Test compounds were predissolved in DMSO and added either to the apical or basolateral compartment in final concentration of 2 μM in transport buffer. Before and after 2h incubation at 37° C. samples were taken from both compartments. Analysis of compound content was done after precipitation with methanol by LC/MS/MS analysis. Permeability (Papp) was calculated in the apical to basolateral (A →B) and basolateral to apical (B→A) directions. The apparent permeability was calculated using following equation: Papp=(Vr/Po)(1/S)(P2/t)
Where Vr is the volume of medium in the receiver chamber, Po is the measured peak area or height of the test drug in the donor chamber at t=o, S the surface area of the monolayer, P2 is the measured peak area of the test drug in the acceptor chamber after 2h of incubation, and t is the incubation time. The efflux ratio basolateral (B) to apical (A) was calculated by dividing the Papp B-A by the Papp A-B. In addition the compound recovery was calculated. The following reference compounds were used for the classification of the permeability class: Antipyrine, Pyrazosin, Verapamil, Fluvastatin, Cimetidine, Ranitidine, Atenolol, Sulfasalazine.

[2] = test system: MOLM13 cells; test: Proliferation assay, MOLM-13; format: cell-based; details: Homo sapiens, 72-hour exposure, Cell Titre-Glo, read-out: Inhibition of MOLM13 cell proliferation IC50
Procedure: Non-adherent MOLM-13 human acute myeloid leukemia cells (DSMZ ACC 554) were seeded at a density of 5,000 cells/well in a 96-well multititer plate in 100 μL of growth medium supplemented 10% fetal calf serum. After 24 hours, cell viability of one plate (zero-point plate) was determined with the Cell Titre-Glo Luminescent Cell Viability Assay (Promega), while 50 μL of test compound containing medium was added to the wells of the other plates (final concentrations in the range of 0.001-10 μM and DMSO controls; the final concentration of the solvent dimethyl sulfoxide was 0.5%). Cell viability was assessed after 72-hour exposure with the Cell Titre-Glo Luminescent Cell Viability Assay (Promega). IC50 values (inhibitory concentration at 50% of maximal effect) were determined by means of a 4 parameter fit on measurement data which were normalized to vehicle (DMSO) treated cells (=100%) and measurement readings taken immediately before compound exposure (=0%).

| Papp A→B at 2 h, 2 μM ([1]; 2h incubation, apical to basolateral, read-out: Papp A-B (Mari)) | Papp B→A at 2 h, 2 μM ([1]; 2h incubation, basolateral to apical, read-out: Papp B-A (Mari)) | efflux ratio at 2 h, 2 μM ([1]; Papp B-A / Papp A-B) | IC50 [2] | Compound |
| --- | --- | --- | --- | --- |
| 17.8 ×10⁻⁶ cm/s | 19.1 ×10⁻⁶ cm/s | 1.1 | – | COc1cc(F)ccc1-c1cc(Nc2cc(CS(C)(=O)=O)ccn2)ncn1 [Example 1, 6-(4-Fluoro-2-methoxyphenyl)-N-{4-[(methylsulfonyl)methyl]pyridin-2-yl}pyrimidin-4-amine] |
| – | – | – | 18 nM | COc1cc(F)ccc1-c1cc(Nc2cc(CS(C)(=O)=O)cc(C(F)(F)F)n2)ncn1 [Example 3, 6-(4-Fluoro-2-methoxyphenyl)-N-{4-[(methylsulfonyl)methyl]-6-(trifluoromethyl)pyridin-2-yl}pyrimidin-4-amine] |
